Experimental data published in US20250215029A1 (Recludix Pharma, Inc., priority 2022, published 2025).
Read-outs that look alike come from different tables or passages of the source.

How the values were obtained:
pY705-STAT3 in PBMC = target: T1, pY705-STAT3 in PBMC (Homo sapiens, UniProt P40763); assay: MSD-pSTAT-PBMC Assay (pSTAT3, IL-6 stimulated); format: cell-based; conditions: compound 3 hrs, then 10 ng/mL IL-6 for 10 min, Table 1114
T1 construct: Cryopreserved Peripheral Blood Mononuclear Cells (PBMC) are from AllCells; host or cells: cryopreserved PBMC
T1 sequence (P40763 whole entry): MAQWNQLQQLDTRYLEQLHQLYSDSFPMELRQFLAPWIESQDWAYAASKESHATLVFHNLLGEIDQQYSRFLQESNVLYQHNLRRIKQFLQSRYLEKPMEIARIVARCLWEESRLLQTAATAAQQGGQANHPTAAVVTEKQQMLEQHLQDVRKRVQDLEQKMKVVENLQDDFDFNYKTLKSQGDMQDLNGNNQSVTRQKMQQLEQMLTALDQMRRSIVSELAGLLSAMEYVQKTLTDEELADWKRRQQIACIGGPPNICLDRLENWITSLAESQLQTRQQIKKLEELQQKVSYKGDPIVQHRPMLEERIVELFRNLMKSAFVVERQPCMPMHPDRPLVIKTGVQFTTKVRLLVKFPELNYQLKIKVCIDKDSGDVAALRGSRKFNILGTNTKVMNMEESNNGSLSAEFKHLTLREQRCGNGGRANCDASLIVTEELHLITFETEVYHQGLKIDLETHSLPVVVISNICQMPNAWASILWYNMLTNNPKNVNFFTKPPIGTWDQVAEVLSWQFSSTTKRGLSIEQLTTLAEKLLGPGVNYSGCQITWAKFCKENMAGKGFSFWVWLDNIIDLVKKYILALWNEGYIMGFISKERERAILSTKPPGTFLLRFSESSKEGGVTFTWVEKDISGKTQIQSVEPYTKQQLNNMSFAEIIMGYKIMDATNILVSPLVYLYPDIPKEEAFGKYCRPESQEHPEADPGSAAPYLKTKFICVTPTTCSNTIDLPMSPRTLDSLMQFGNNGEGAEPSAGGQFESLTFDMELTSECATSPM
Summary of the method: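 Human PBMCs were pretreated with compound for 3 h, then stimulated with 10 ng/mL IL-6 for 10 min. Lysate pY705-STAT3 was measured by MSD sandwich immunoassay (anti-STAT3 capture) and corrected for unstimulated background. Signal was normalized to DMSO, and IC50 came from variable-slope regression.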

pY641-STAT6 in PBMC = target: T2, pY641-STAT6 in PBMC (Homo sapiens, UniProt P42226); assay: MSD-pSTAT-PBMC Assay (pSTAT6, IL-4 stimulated); format: cell-based; conditions: compound 3 hrs, then 1 ng/mL IL-4 for 10 min, Table 1114
T2 construct: Cryopreserved Peripheral Blood Mononuclear Cells (PBMC) are from AllCells; host or cells: cryopreserved PBMC
T2 sequence (P42226 1-847): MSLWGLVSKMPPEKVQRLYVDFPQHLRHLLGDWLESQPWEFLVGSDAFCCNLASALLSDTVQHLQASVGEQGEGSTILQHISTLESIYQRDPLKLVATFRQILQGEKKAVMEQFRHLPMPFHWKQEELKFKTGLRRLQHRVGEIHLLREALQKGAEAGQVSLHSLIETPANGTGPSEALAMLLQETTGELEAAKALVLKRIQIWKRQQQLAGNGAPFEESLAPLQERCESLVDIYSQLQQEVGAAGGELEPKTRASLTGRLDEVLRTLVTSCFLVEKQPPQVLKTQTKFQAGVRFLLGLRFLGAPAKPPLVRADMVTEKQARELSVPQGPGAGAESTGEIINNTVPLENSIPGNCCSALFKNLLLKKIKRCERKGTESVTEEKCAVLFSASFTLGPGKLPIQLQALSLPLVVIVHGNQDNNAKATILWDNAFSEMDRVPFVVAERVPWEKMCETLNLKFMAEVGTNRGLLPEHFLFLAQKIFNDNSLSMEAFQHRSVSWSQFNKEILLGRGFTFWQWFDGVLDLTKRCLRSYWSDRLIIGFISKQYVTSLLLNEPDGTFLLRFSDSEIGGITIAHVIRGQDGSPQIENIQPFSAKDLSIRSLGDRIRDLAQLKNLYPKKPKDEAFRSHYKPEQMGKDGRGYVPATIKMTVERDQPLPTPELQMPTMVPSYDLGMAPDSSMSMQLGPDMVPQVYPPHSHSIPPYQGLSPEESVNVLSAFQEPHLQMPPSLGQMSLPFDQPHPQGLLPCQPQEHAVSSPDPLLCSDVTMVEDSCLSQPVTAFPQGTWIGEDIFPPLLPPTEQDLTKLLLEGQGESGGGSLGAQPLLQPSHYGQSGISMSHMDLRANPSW
Summary of the method: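 Thawed human PBMC rested overnight in IMDM/10% FBS, then got compound for 3 hrs before a 10 min cytokine pulse: 1 ng/mL IL-4 for pSTAT6, 10 ng/mL IL-6 for pSTAT3. Lysates went to MSD sandwich capture on total STAT6 or STAT3 with phospho-specific detection. IC50 came from background-subtracted, DMSO-normalized signal.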

| Compound | IC50 (pY705-STAT3 in PBMC; PBMC, read-out: pSTAT3) | IC50 (pY641-STAT6 in PBMC; PBMC, read-out: pSTAT6) | IC50 (pY705-STAT3 in PBMC; pSTAT3, PBMC) | IC50 (pY641-STAT6 in PBMC; pSTAT6, PBMC) |
| --- | --- | --- | --- | --- |
| CC(C)(C)C(=O)SCCOP(=O)(OCCSC(=O)C(C)(C)C)C(F)(F)c1ccc2sc(C(=O)N[C@H]3CC4(CC[C@H]5CC[C@@H](C(=O)N6CC(c7cccnc7)C6)N5C3=O)CC4)cc2c1 [Compound 130, S,S′-((((difluoro(2-(((3′S,6′S,10a′S)-5′-oxo-3′-(3-(pyridin-3-yl)azetidine-1-carbonyl)octahydro-5′H-spiro [cyclopropane-1,8′-pyrrolo[1,2-a]azocin]-6′-yl)carbamoyl)benzo[b]thiophen-5-yl)methyl)phosphoryl)bis (oxy))bis (ethane-2,1-diyl)) bis(2,2-dimethylpropane-thioate)] | < 100 nM | > 3000 nM | – | – |
| CCCC(=O)SCCOP(=O)(OCCSC(=O)CCC)C(F)(F)c1ccc2sc(C(=O)N[C@H]3CCCC[C@H]4CC[C@@H](C(=O)N(C)c5ccc6nnccc6c5)N4C3=O)cc2c1 [Compound 131, S,S′-(((((2-(((3S,6S,10aS)-3-(cinnolin-6-yl(methyl)carbamoyl)-5-oxodecahydro-pyrrolo[1,2-a]azocin-6-yl)carbamoyl)benzo[b]thiophen-5-yl)difluoromethyl)phosphoryl)bis (oxy))bis(ethane-2,1-diyl)) dibutanethioate] | 100 to 1000 nM | < 100 nM | – | – |
| CC(C)(C)C(=O)SCCOP(=O)(OCCSC(=O)C(C)(C)C)C(F)(F)c1ccc2sc(C(=O)N[C@H]3CCC4(CC4)C[C@H]4CC[C@@H](C(=O)N5CC(c6cccnc6)C5)N4C3=O)cc2c1 [Compound 132, S,S′-((((difluoro(2-(((3′S,6′S,10a′R)-5′-oxo-3′-(3-(pyridin-3-yl)azetidine-1-carbonyl)octahydro-1′H-spiro [cyclopropane-1,9′-pyrrolo[1,2-a]azocin]-6′-yl)carbamoyl)benzo[b]thiophen-5-yl)methyl)phosphoryl)bis (oxy))bis(ethane-2,1-diyl))bis(2,2-dimethylpropane-thioate)] | < 100 nM | > 3000 nM | – | – |
| CCCC(=O)SCCOP(=O)(Oc1ccccc1)C(F)(F)c1ccc2sc(C(=O)N[C@H]3CCC[C@H]4CC[C@@H](C(=O)N5CC(c6cccnc6)C5)N4C3=O)cc2c1 (stereo partly drawn) [Compound 136, S-(2-(((difluoro(2-(((3S,6S,9aS)-5-oxo-3-(3-(pyridin-3-yl)azetidine-1-carbonyl)octahydro-1H-pyrrolo[1,2-a]azepin-6-yl)carbamoyl)benzo[b]thiophen-5-yl)methyl) (phenoxy)phosphoryl)oxy)ethyl) butanethioate] | – | – | < 100 nM | 1000 to 3000 nM |
| CCCC(=O)SCCOP(=O)(Oc1cccc2ccccc12)C(F)(F)c1ccc2sc(C(=O)N[C@H]3CCC[C@H]4CC[C@@H](C(=O)N5CC(c6cccnc6)C5)N4C3=O)cc2c1 (stereo partly drawn) [Compound 140, S-(2-(((difluoro(2-(((3S,6S,9aS)-5-oxo-3-(3-(pyridin-3-yl)azetidine-1-carbonyl)octahydro-1H-pyrrolo[1,2-a]azepin-6-yl)carbamoyl)benzo[b]thiophen-5-yl)methyl) (naphthalen-1-yloxy)phosphoryl)oxy)ethyl) butanethioate] | – | – | < 100 nM | 1000 to 3000 nM |
| CN(C(=O)[C@@H]1CC[C@@H]2C/C=C\C[C@H](NC(=O)c3cc4cc(C(F)(F)P(=O)(OCOC(=O)C(C)(C)C)OCOC(=O)C(C)(C)C)ccc4[nH]3)C(=O)N21)c1ccccc1 [Compound 141, (((difluoro(2-(((3S,6S,10aR,Z)-3-(methyl (phenyl)carbamoyl)-5-oxo-1,2,3,5,6,7,10,10a-octahydropyrrolo [1,2-a]azocin-6-yl)carbamoyl)-1H-indol-5-yl)methyl)phosphoryl)bis (oxy))bis (methylene) bis(2,2-dimethylpropanoate)] | 100 to 1000 nM | 100 to 1000 nM | – | – |
| CN(C(=O)[C@@H]1CC[C@@H]2CCCC[C@H](NC(=O)c3cc4cc(C(F)(F)P(=O)(OCOC(=O)C(C)(C)C)OCOC(=O)C(C)(C)C)ccc4[nH]3)C(=O)N21)c1ccccc1 [Compound 142, (((difluoro(2-(((3S,6S,10aS)-3-(methyl(phenyl)carbamoyl)-5-oxodecahydro-pyrrolo[1,2-a]azocin-6-yl)carbamoyl)-1H-indol-5-yl)methyl)phosphoryl)bis(oxy)) bis(methylene) bis(2,2-dimethylpropanoate)] | 100 to 1000 nM | < 100 nM | – | – |
| CN(C)S(=O)(=O)N1CCN(C(=O)[C@@H]2CC[C@@H]3CCCC[C@H](NC(=O)c4cc5cc(C(F)(F)P(=O)(OCOC(=O)C(C)(C)C)OCOC(=O)C(C)(C)C)ccc5s4)C(=O)N32)CC1 [Compound 145, ((((2-(((3S,6S,10aS)-3-(4-(N,N-dimethylsulfamoyl)piperazine-1-carbonyl)-5-oxodecahydro-pyrrolo[1,2-a]azocin-6-yl)carbamoyl)benzo[b]thiophen-5-yl)difluoromethyl)phosphoryl)bis (oxy))bis (methylene) bis(2,2-dimethylpropanoate)] | < 100 nM | < 100 nM | – | – |
| CC(C)(C)C(=O)OCOP(=O)(OCOC(=O)C(C)(C)C)C(F)(F)c1ccc2sc(C(=O)N[C@@]3(C)CCCC[C@H]4CC[C@@H](C(=O)N5CC(c6ccccn6)C5)N4C3=O)cc2c1 [Compound 150, (((difluoro(2-(((3S,6S,10aS)-6-methyl-5-oxo-3-(3-(pyridin-2-yl)azetidine-1-carbonyl)decahydropyrrolo [1,2-a]azocin-6-yl)carbamoyl)benzo[b]thiophen-5-yl)methyl)phosphoryl)bis (oxy))bis (methylene) bis(2,2-dimethyl-propanoate)] | 100 to 1000 nM | > 3000 nM | – | – |
| CC(C)OC(=O)OCOP(=O)(Cc1ccc2sc(C(=O)N[C@H]3CCCC4CC[C@@H](C(=O)N5CC(c6cccnc6)C5)N4C3=O)cc2c1)OCOC(=O)OC(C)C (stereo partly drawn) [Compound 158, diisopropyl (((((2-(((3S,6S,9aS)-5-oxo-3-(3-(pyridin-3-yl)azetidine-1-carbonyl)octahydro-1H-pyrrolo[1,2-a]azepin-6-yl)carbamoyl)benzo [b]thiophen-5-yl)methyl)phosphoryl)bis (oxy))bis(methyl-ene))bis(carbonate)] | < 100 nM | > 3000 nM | – | – |
| CC(C)CC(=O)SCCOP(=O)(OCCSC(=O)CC(C)C)C(F)(F)c1ccc2ccc(C(=O)N[C@H]3CCCC[C@H]4CC[C@@H](C(=O)N5CCC(c6cc[nH]c(=O)c6)C5)N4C3=O)cc2c1 (stereo partly drawn) [Compound 160, S,S′-((((difluoro(7-(((3S,6S,10aS)-5-oxo-3-(3-(2-oxo-1,2-dihydropyridin-4-yl)pyrrolidine-1-carbonyl)decahydropyrrolo [1,2-a]azocin-6-yl)carbamoyl)naphthalen-2-yl)methyl)phosphoryl)bis(oxy))bis(ethane-2,1-diyl)) bis(3-methylbutane thioate)] | < 100 nM | < 100 nM | – | – |
| CC(C)CC(=O)SCCOP(=O)(OCCSC(=O)CC(C)C)C(F)(F)c1ccc2sc(C(=O)N[C@H]3CCCC(C)[C@H]4CC[C@@H](C(=O)N5CC(c6cccnc6)C5)N4C3=O)cc2c1 (stereo partly drawn) [Compound 161, S,S′-((((difluoro(2-(((3S,6S,10aR)-10-methyl-5-oxo-3-(3-(pyridin-3-yl)azetidine-1-carbonyl)decahydropyrrolo [1,2-a]azocin-6-yl)carbamoyl)benzo[b]thiophen-5-yl)methyl)phosphoryl)bis(oxy))bis(ethane-2,1-diyl)) bis(3-methylbutane thioate)] | < 100 nM | > 3000 nM | – | – |
| CC(C)(C)C(=O)OCOP(=O)(OCOC(=O)C(C)(C)C)C(F)(F)c1ccc2sc(C(=O)NC3CCCCC4CCCC(C(=O)N5CC(C#N)C(c6ccccc6)C5)N4C3=O)cc2c1 [Compound 169, ((((2-(((4S,7S,11aS)-4-((rel- trans)-3-cyano-4-phenylpyrrolidine-1-carbonyl)-6-oxodecahydro-2H-pyrido[1,2-a]azocin-7-yl)carbamoyl)benzo[b]thiophen-5-yl)difluoromethyl)phosphroyl)bis(oxy)) bis(methylene) bis(2,2-dimethylpropaneoate)] | 100 to 1000 nM | < 100 nM | – | – |
